Like-named read-outs stand apart in the source and are kept apart here.
Legend:
[1] = biological target: ENPP1 on MDA-MB-231 cells (Homo sapiens (Human), UniProt P22413); assay: Assay 3: inhibition of ENPP1 hydrolysis of AMP p-nitrophenyl ester on MDA-MB-231 cells
Method: Hydrolysis of the p-nitrophenyl ester of AMP (pNP-AMP), an isostere of ATP, is selectively catalyzed by ENPP1 in the supernatant of MDA-MB-231 cell cultures. Inhibition of the hydrolysis of pNP-AMP by MDA-MB-231 at pH 7.4 and 37° C., is a good model of physiologically relevant activity of membrane-bound ENPP1 at disease-relevant expression levels.
MDA-MB-231 cells were harvested using TypLE Express Enzyme digestion and suspended in 100 μL of Leibovitz's L-15 Medium, 20% FBS, seeding the cells in a 96-well assay plate with 4.5×10^4 cells/well. Cells were incubated at 37° C. with 1% CO2 for 24 h. In a separate dilution plate, 2× of top dose of compound was prepared in phenol-red free 1640 medium without FBS and then 1:3 serial diluted in the same medium. The cell culture medium of L15 medium was aspirated carefully and cells were washed with PBS once, and 50 μL per well of test compound or DMSO blank were added to the assay plate. Substrate mix (50 μL; 0.5 mM pNP-AMP in phenol-red free 1640 media without FBS) was added for a pNP-AMP final concentration of 0.25 mM. The system was incubated at 37° C. for 3 h.

ENPP-1 ECD [2] = biological target: T1, ENPP-1 ECD (Homo sapiens (Human), UniProt P22413); assay: Assay 2: inhibition of ENPP1 hydrolysis of 2′,3′-cGAMP (AMP-Glo, […] enzyme)
Method: Assay 2: Compared to the conditions in Assay 1, this assay has a larger dynamic range and ensures the system is under steady-state conditions by reducing the enzyme concentration in the assay.
Test compounds were plated in a 3× dilution scheme in a 384 well plate. […] AMP Detection solution (10 μL) was added to each well, the plate centrifuged and incubated for 60 min.

ENPP-1 ECD [3] = biological target: T1, ENPP-1 ECD; assay: Assay 1: inhibition of ENPP1 hydrolysis of 2′,3′-cGAMP (AMP-Glo, […] enzyme)
Method: Assay 1: Test compounds were plated in a 3× dilution scheme in a 384 well plate. […] AMP Detection solution (100 μL) was added to each well, the plate centrifuged and incubated for 60 min.

[4] = read-out: Assay 3 (KI, app), apparent KI from IC50 via Cheng/Prusoff, pNP-AMP […], MDA-MB-231 cells, pH 7.4, 37° C., 3 h, unit inferred
[5] = read-out: Assay 2 (KI), ENPP1 hydrolysis of 2′,3′-cGAMP, AMP-Glo, […] ENPP-1, 24 μM cGAMP
[6] = read-out: Assay 2 (KI), inhibition of ENPP1 hydrolysis of 2′,3′-cGAMP, no unit in Table 18 (Table 17 legend for this assay uses nM)
[7] = read-out: Assay 1 (IC50), ENPP1 hydrolysis of 2′,3′-cGAMP, AMP-Glo
[8] = read-out: Assay 1 (IC50), inhibition of ENPP1 hydrolysis of 2′,3′-cGAMP, no unit in Table 18 (Table 17 legend for this assay uses nM)
[9] = Assay 2 (KI), ENPP1 hydrolysis of 2′,3′-cGAMP, AMP-Glo, […] ENPP-1, 24 μM cGAMP
[10] = Assay 2 (KI), inhibition of ENPP1 hydrolysis of 2′,3′-cGAMP, no unit in Table 18 (Table 17 legend for this assay uses nM)
[11] = Assay 1 (IC50), inhibition of ENPP1 hydrolysis of 2′,3′-cGAMP, no unit in Table 18 (Table 17 legend for this assay uses nM)
[12] = Assay 1 (IC50), ENPP1 hydrolysis of 2′,3′-cGAMP, AMP-Glo
[13] = IC50 in Assay 1, […] ENPP-1 ECD, 24 μM 2,3-cGAMP, pH 8.0

T1 sequence (P22413 98-925): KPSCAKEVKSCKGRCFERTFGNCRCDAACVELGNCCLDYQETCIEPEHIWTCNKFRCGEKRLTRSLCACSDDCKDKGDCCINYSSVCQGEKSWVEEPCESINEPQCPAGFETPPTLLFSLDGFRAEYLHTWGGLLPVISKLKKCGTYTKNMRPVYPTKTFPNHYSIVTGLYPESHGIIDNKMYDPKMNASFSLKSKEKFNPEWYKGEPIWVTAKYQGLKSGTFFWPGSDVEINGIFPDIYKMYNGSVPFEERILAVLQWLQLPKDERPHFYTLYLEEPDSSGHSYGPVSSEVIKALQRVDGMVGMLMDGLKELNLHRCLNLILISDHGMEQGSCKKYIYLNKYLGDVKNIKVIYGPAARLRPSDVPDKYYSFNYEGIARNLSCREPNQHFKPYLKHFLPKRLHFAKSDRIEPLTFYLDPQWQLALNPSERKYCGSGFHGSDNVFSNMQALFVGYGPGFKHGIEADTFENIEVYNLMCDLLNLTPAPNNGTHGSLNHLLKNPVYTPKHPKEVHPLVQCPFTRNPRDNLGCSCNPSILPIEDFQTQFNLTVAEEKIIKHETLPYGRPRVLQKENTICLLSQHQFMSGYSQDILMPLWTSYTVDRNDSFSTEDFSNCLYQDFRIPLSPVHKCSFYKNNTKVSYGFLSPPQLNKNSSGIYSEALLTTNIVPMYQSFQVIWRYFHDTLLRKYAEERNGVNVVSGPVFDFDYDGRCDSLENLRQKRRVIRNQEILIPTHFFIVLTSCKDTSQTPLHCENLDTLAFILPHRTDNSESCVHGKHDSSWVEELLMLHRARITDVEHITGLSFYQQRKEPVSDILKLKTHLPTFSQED
Chain of ENPP1 on MDA-MB-231 cells (P22413 whole entry, the tested form may be a part): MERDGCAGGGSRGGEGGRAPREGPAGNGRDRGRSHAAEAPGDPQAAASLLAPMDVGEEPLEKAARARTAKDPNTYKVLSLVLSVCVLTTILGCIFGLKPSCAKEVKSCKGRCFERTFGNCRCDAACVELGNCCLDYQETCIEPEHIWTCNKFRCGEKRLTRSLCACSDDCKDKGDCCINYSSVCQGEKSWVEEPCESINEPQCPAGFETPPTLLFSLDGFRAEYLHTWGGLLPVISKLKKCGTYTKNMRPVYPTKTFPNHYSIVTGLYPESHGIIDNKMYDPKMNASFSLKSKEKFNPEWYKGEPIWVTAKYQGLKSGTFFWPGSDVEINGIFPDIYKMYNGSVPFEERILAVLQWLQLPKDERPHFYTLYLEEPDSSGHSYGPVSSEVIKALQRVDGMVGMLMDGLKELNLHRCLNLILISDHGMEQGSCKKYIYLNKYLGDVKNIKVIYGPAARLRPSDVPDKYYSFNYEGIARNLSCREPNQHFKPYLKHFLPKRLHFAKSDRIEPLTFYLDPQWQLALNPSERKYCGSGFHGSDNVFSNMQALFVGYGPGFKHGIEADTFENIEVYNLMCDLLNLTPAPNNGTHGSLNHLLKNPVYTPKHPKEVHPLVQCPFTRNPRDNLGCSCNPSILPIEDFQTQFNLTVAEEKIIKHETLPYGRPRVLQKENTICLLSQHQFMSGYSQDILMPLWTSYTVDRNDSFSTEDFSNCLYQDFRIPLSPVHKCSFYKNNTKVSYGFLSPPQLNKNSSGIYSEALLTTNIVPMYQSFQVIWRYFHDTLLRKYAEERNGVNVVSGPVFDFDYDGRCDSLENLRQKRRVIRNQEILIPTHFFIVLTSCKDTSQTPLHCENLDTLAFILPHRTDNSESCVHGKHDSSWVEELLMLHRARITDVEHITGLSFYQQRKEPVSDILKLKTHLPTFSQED

Structure (SMILES)	Ki [1, 4]	Ki (ENPP-1 ECD [2]; [5])	Ki (ENPP-1 ECD [2]; [6])	IC50 (ENPP-1 ECD [3]; [7])	IC50 (ENPP-1 ECD [3]; [8])	Ki [1]	Ki (ENPP-1 ECD [2]; [9])	Ki (ENPP-1 ECD [2]; [10])	IC50 (ENPP-1 ECD [3]; [11])	IC50 (ENPP-1 ECD [3]; [12])	Ki (ENPP-1 ECD [3])	IC50 (ENPP-1 ECD [3]; [13])
CC[S@](=N)(=O)c1ccc(Oc2ccnc3cc(OC)ccc23)cc1 [Compound 103b]	30 nM	< 3 nM	0.31 nM	< 10 nM	2.2 nM	–	–	–	–	–	–	–
COc1cc2ncc(C#N)c(N3CCC(CCS(C)(=N)=O)CC3)c2cc1Cl (stereo not shown) [Compound 152, 6-chloro-4-(4-{2-[imino(methyl)oxo-λ6-sulfanyl]ethyl}piperidin-1-yl)-7-methoxyquinoline-3-carbonitrile]	–	–	–	< 10 nM	–	26 nM	< 3 nM	0.41 nM	2.4 nM	–	–	–
COc1cc2ncnc(-c3ccc4c(c3)CN(S(C)(=N)=O)CC4)c2cc1OC (stereo not shown) [Compound 37, 6,7-dimethoxy-4-(2-(S-methylsulfonimidoyl)-1,2,3,4-tetrahydroisoquinolin-7-yl)quinazoline]	–	–	–	< 10 nM	–	28 nM	< 3 nM	0.41 nM	2.9 nM	–	–	–
COc1cccc2c(N3CCC(CCS(C)(=N)=O)CC3)c(C#N)cnc12 (stereo not shown) [Compound 57, 8-methoxy-4-(4-(2-(S-methylsulfonimidoyl)ethyl)piperidin-1-yl)quinoline-3-carbonitrile]	–	–	–	–	–	120 nM	3 to 300 nM	5.3 nM	31 nM	10 to 1000 nM	–	–
COc1ccc2c(Oc3ccc(S(C)(=N)=O)nc3)ccnc2c1 (stereo not shown) [Compound 101, imino({5-[(7-methoxyquinolin-4-yl)oxy]pyridin-2-yl})methyl-λ^6-sulfanone]	–	–	–	–	–	300 nM	3 to 300 nM	5.4 nM	40 nM	10 to 1000 nM	–	–
COc1cc2nccc(Oc3ccc(S(C)(=N)=O)cc3)c2cc1OC (stereo not shown) [Compound 1, (4-((6,7-dimethoxyquinolin-4-yl)oxy)phenyl)(imino)(methyl)-λ^6-sulfanone]	–	–	–	–	–	61 nM	3 to 300 nM	3.5 nM	17 nM	10 to 1000 nM	5.1 nM	17 nM
COc1cc2nccc(N3CCC(CCS(C)(=N)=O)CC3)c2cc1F (stereo not shown) [Compound 150, {2-[1-(6-fluoro-7-methoxyquinolin-4-yl)piperidin-4-yl]ethyl}(imino)methyl-λ^6-sulfanone]	–	–	–	–	–	62 nM	< 3 nM	1.3 nM	8.6 nM	–	–	–
COc1cc2ncc(C#N)c(Oc3ccc([S@@](C)(=N)=O)cc3)c2cc1F [Compound 44a]	110 nM	< 3 nM	1 nM	10 to 1000 nM	11 nM	–	–	–	–	–	–	–
COc1ccc2c(OCc3ccc([S@@](C)(=N)=O)cc3)ccnc2c1 [Compound 75a]	22 nM	< 3 nM	0.38 nM	< 10 nM	3 nM	–	–	–	–	–	–	–
COc1ccc2c(OCc3cccc(S(C)(=N)=O)c3)ccnc2c1 (stereo not shown) [Compound 133, imino(3-{[(7-methoxyquinolin-4-yl)oxy]methyl}phenyl)methyl-λ^6-sulfanone]	–	–	–	–	–	13 nM	< 3 nM	0.12 nM	1.4 nM	–	–	–
COc1ccc2c(Oc3ccc(S(C)(=N)=O)cc3F)ccnc2c1 (stereo not shown) [Compound 12, (3-fluoro-4-((7-methoxyquinolin-4-yl)oxy)phenyl)(imino)(methyl)-λ^6-sulfanone]	–	–	–	–	–	190 nM	3 to 300 nM	8.6 nM	30 nM	10 to 1000 nM	–	–
COc1cc2nccc(Oc3ccc([S@](C)(=N)=O)cc3)c2cc1F [Compound 114a]	6.3 nM	< 3 nM	0.088 nM	< 10 nM	0.94 nM	–	–	–	–	–	–	–
COc1cc2nccc(Oc3ccc(S(C)(=N)=O)cc3)c2cc1F (stereo not shown) [Compound 114, {4-[(6-fluoro-7-methoxyquinolin-4-yl)oxy]phenyl}(imino)methyl-λ^6-sulfanone]	–	–	–	–	–	19 nM	< 3 nM	0.27 nM	2.8 nM	–	–	–
COc1ccc2c(N3CCC4(CC3)CCN([S@](C)(=N)=O)C4)ccnc2c1 [Compound 55a]	8.7 nM	< 3 nM	0.09 nM	< 10 nM	0.76 nM	–	–	–	–	–	–	–
COc1cc2nccc(Oc3ccc([S@@](C)(=N)=O)cc3)c2cc1OC [Compound 1S, (S)-(4-((6,7-dimethoxyquinolin-4-yl)oxy)phenyl)(imino)(methyl)-λ^6-sulfanone]	–	–	–	–	–	45 nM	< 3 nM	0.87 nM	13 nM	10 to 1000 nM	–	–
COc1ccc2c(Oc3ccc(S(C)(=N)=O)cc3)ccnc2c1 (stereo not shown) [Compound 80, imino(4-((7-methoxyquinolin-4-yl)oxy)phenyl)(methyl)-λ^6-sulfanone]	–	–	–	< 10 nM	–	29 nM	< 3 nM	1.1 nM	6.2 nM	–	–	1.4 nM

Structure (SMILES)	Ki [1, 4]	Ki (ENPP-1 ECD [2]; [5])	Ki (ENPP-1 ECD [2]; [6])	IC50 (ENPP-1 ECD [3]; [7])	IC50 (ENPP-1 ECD [3]; [8])	Ki [1]	Ki (ENPP-1 ECD [2]; [9])	Ki (ENPP-1 ECD [2]; [10])	IC50 (ENPP-1 ECD [3]; [11])	IC50 (ENPP-1 ECD [3]; [12])	Ki (ENPP-1 ECD [3])	IC50 (ENPP-1 ECD [3]; [13])
COc1ccc2c(-c3ccc4c(c3)CN(S(C)(=N)=O)CC4)ccnc2c1 (stereo not shown) [Compound 52, 7-methoxy-4-(2-(S-methylsulfonimidoyl)-1,2,3,4-tetrahydroisoquinolin-7-yl)quinoline]	–	–	–	–	–	280 nM	3 to 300 nM	6.3 nM	35 nM	10 to 1000 nM	–	–
COc1cc2nncc(N3CCC(CCS(C)(=N)=O)CC3)c2cc1OC (stereo not shown) [Compound 151, {2-[1-(6,7-dimethoxycinnolin-4-yl)piperidin-4-yl]ethyl}(imino)methyl-λ^6-sulfanone]	–	–	–	–	–	59 nM	< 3 nM	0.57 nM	6.2 nM	–	–	–
COc1cc2ncnc(-c3ccc4c(c3)CN(S(N)(=O)=O)CC4)c2cc1OC [reference compound]	–	–	–	–	–	23 nM	–	–	–	–	–	11 nM
COc1ccc2c(Oc3ccc([S@@](C)(=N)=O)cc3)ccnc2c1 [Compound 80a]	13 nM	< 3 nM	0.26 nM	< 10 nM	2.2 nM	–	–	–	–	–	–	–
COc1cc2nccc(Oc3ccc([S@@](=N)(=O)C4CC4)cc3)c2cc1F [Compound 120a]	6.5 nM	< 3 nM	0.05 nM	< 10 nM	0.46 nM	–	–	–	–	–	–	–
COc1ccc2c(Oc3ccc(S(=N)(=O)C4CC4)cc3)ccnc2c1 (stereo not shown) [Compound 60, cyclopropyl(imino)(4-((7-methoxyquinolin-4-yl)oxy)phenyl)-λ^6-sulfanone]	–	–	–	< 10 nM	–	23 nM	< 3 nM	0.34 nM	2.8 nM	–	–	–
COc1ccc2c(OCc3cccc([S@@](C)(=N)=O)c3)ccnc2c1 [Compound 133a]	4.1 nM	< 3 nM	0.055 nM	< 10 nM	0.5 nM	–	–	–	–	–	–	–
COc1ccc2c(N3CCC4(CC3)CCN(S(C)(=N)=O)C4)ccnc2c1 (stereo not shown) [Compound 55, 8-(7-methoxyquinolin-4-yl)-2-(S-methylsulfonimidoyl)-2,8-diazaspiro[4.5]decane]	–	–	–	< 10 nM	–	25 nM	< 3 nM	0.14 nM	2 nM	–	–	–
COc1cc2nccc(Oc3ccc(S(=N)(=O)C4CC4)cc3)c2cc1F (stereo not shown) [Compound 120, [cyclopropyl({4-[(6-fluoro-7-methoxyquinolin-4-yl)oxy]phenyl})imino-λ^6-sulfanyl]one]	–	–	–	< 10 nM	–	6.2 nM	< 3 nM	0.12 nM	1.1 nM	–	–	–
COc1cc2ncnc(N3CCC(CNS(C)(=N)=O)CC3)c2cc1OC (stereo not shown) [Compound 94, N-((1-(6,7-dimethoxyquinazolin-4-yl)piperidin-4-yl)methyl)methanesulfonimidamide]	–	–	–	< 10 nM	–	83 nM	< 3 nM	1.3 nM	6.6 nM	–	–	–
COc1cc2nccc(-c3ccc4c(c3)CN(S(C)(=N)=O)CC4)c2cc1OC (stereo not shown) [Compound 161, [7-(6,7-dimethoxyquinolin-4-yl)-1,2,3,4-tetrahydroisoquinolin-2-yl](imino)methyl-λ^6-sulfanone]	–	–	–	–	–	3.7 nM	< 3 nM	0.051 nM	1.3 nM	–	–	1.3 nM
COc1cccc2c(N3CCC(C[S@](=N)(=O)C4CC4)CC3)c(C#N)cnc12 [Compound 189b]	0.31 nM	–	0.0075 nM	–	–	–	–	–	–	–	–	–
CCOc1cccc2c(N3CCC(O)(CS(C)(=N)=O)CC3)ncnc12 (stereo not shown) [Compound 196, {[1-(8-ethoxyquinazolin-4-yl)-4-hydroxypiperidin-4-yl]methyl}(imino)methyl-λ^6-sulfanone]	–	–	–	–	–	2.3 nM	–	0.091 nM	–	–	–	–
CCOc1cccc2c(N3CCC(CS(C)(=N)=O)CC3)ncnc12 (stereo not shown) [Compound 187, {[1-(8-ethoxyquinazolin-4-yl)piperidin-4-yl]methyl}(imino)methyl-λ^6-sulfanone]	–	–	–	–	–	4.4 nM	–	0.19 nM	–	–	–	–
COc1cc2nccc(OCc3cccc([S@](C)(=N)=O)c3)c2cc1OC [Compound 175a]	0.53 nM	–	0.011 nM	–	–	–	–	–	–	–	–	–
